Columns and labels:
[1] = tested on: mice with combined leptin and LDL-receptor deficiency (double knockout [DKO] mice); test: Blood analyses (glucose, insulin, lipids, HOMA, adiponectin) in obese, dyslipidemic and diabetic DKO mice; assay type: in vivo, mouse
Text: We measured the effect of stevioside on weight, blood variables (e.g. glucose, insulin, lipids), PPAR expression in adipose tissues, and on atherosclerosis in mice with combined leptin and LDL-receptor deficiency (double knockout [DKO] mice).
(§1) Homozygous LDL-receptor-knockout mice (LDLR^(−/−)), heterozygous ob/+, and C57BL6 mice were purchased from Jackson Laboratory, Bar Harbor, Me. LDLR^(−/−) mice were backcrossed into a C57BL6 background to the 10th generation. To obtain DKO mice with combined leptin deficiency (ob/ob) and LDL-receptor deficiency, LDLR^(−/−) and ob/+ mice were crossed. All offspring were genotyped by polymerase chain reaction (PCR) techniques. All mice were housed at 22° C. on a fixed 12/12-hour light/dark cycle. Experimental procedures in animals were performed in accordance with protocols approved by the Institutional Animal Care and Research Advisory Committee. All mice were fed standard chow containing 4% fat (Pavan Service). Food intake was ≈5.7 g/d. Mice (about 50 g) were treated with stevioside (N=14; 10 mg/kg), steviol (N=9; 5 mg/kg) or placebo (N=17) for 12 weeks between 12 and 24 weeks of age. Stevioside (Molecular weight: 804) was dissolved in water (1 mg/ml) and 500 μl of the solution was administered orally. Steviol (Molecular weight: 318) was dissolved in water containing 6% NaHCO3 (1 mg/ml) and 250 μl of the solution was administered orally.
Blood of conscious mice was collected by tail bleeding into EDTA tubes after an overnight fast. Plasma was obtained by centrifugation. Plasma cholesterol and triglycerides were measured by means of standard enzymatic colorimetric assays (Boehringer Mannheim), plasma fatty acids (FFA) by means of the FFA-Half Microtest kit (Roche Applied Science), glucose by means of a glucometer (Menarini Diagnostics), plasma insulin and adiponectin by means ELISAs (Mercodia and R&D, respectively). Insulin resistance was calculated by a homeostasis model assessment (HOMA)=fasting serum insulin (mU/L) times fasting blood glucose (mmol/L)/22.5.

[2] = tested on: Chinese hypertensive men and women; conditions: cited from earlier work
[3] = Body weight of DKO mice during the 12-week treatment period; assay type: in vivo, mouse; conditions: stevioside 10 mg/kg orally for 12 weeks (12 to 24 weeks of age); placebo 43%
Protocol: as §1

[4] = tested on: RNA expression in aortic arch; test: Real-time RT-PCR of RNA expression in aortic arch of treated DKO mice; assay type: in vivo, mouse
Protocol: as §1
The level of RNA expression in extracts of white visceral (intra-abdominal) adipose tissue and aortic arch was measured by real-time reverse transcription (RT)-PCR. Total RNA was extracted with the Trizol reagent (InVitrogen) and purified on an RNeasy kit column (Qiagen). First-strand cDNA was generated from total RNA by RT using random primers from Takara and Superscript III reverse transcriptase (InVitrogen). Quantitative real-time PCR was performed using SybrGreen master mix according to the supplier protocols (Applied Biosystems).). Oligonucleotides (InVitrogen) used as forward primer (F) and reverse primer (R) were: for mouse PPARalpha: F: 5′-[…]-3′; R: 5′-[…]-3′; for mouse PPARgamma: F: 5′-[…]-3′; R: 5′-GTCAGCGGGTGGGACTTTC-3′; for mouse FABP4: F: 5′-AACTGGGCGTGGAATTCG-3′; R: 5′-[…]-3′; for mouse iNOS: F: 5′-[…]-3′; R: 5′-[…]-3′; for mouse GLUT-4: F: 5′-[…]-3′; R: 5′-[…]-3′; for mouse IRS-1: F: 5′-[…]-3′; R: 5′-CGCCTCGGGAAGAGACAGT-3′; for mouse IRS-2: F: 5′-[…]-3′: R: 5′-[…]-3′; for mouse LXRalpha: F: 5′-[…]-3′; R: 5′-[…]-3′; for mouse SOD1: F: 5′-[…]-3′; R: 5′-[…]-3′; for mouse SOD2: F: 5′-TCGGTGGCGTTGAGATTGT; R: 5′-[…]-3′; for mouse SOD3: F: 5′-[…]-3′; R: 5′-GCTGCCGGAAGAGAACCAA-3′; and for mouse β-actin (housekeeping gene), F: 5′-[…]-3′; R: 5′-[…]-3′. The level of mRNA expression was calculated using the threshold cycle (Ct) value, i.e., the number of PCR cycles at which the fluorescent signal during the PCR reaches a fixed threshold. For each sample, the Ct both for the gene of interest and for the housekeeping gene β-actin were determined to calculate ΔCt,sample (Ct,target gene−Ct,housekeeping gene), thus normalizing the data and correcting for differences in amount and/or quality between the different RNA samples. The expression levels were related to an external calibrator consisting of intra-abdominal adipose tissue from C57BL6 control mice. Subsequently, ΔΔCt (ΔCt,sample−ΔCt,calibrator) was determined, and the relative expression levels were calculated from 2^−ΔΔCt according to the manufacturer's instructions (Applied Biosystems). RNA expression levels are thus indicated as arbitrary units ±SD

[5] = tested on: atherosclerotic plaques of DKO mice; test: Atherosclerosis: morphometric and immunohistochemical analysis of aortic root cross sections of DKO mice; assay type: in vivo, mouse; conditions: stevioside 10 mg/kg or steviol 5 mg/kg orally, 12 weeks
Protocol: as §1
The extent of atherosclerosis was determined by analysis of cross sections from the aortic root. Approximately ten 7-μm frozen sections per staining per animal were used for morphometric and immunohistochemical analysis. Total plaque areas were measured on hematoxylin and eosin stained sections. Lipids were stained with oil-red O, and macrophage areas were stained with an antibody against mouse Mac-3 antigen (Pharmingen), and oxidized LDL with the monoclonal antibody 4E6. Blinded analysis of positive immunostained sections was performed with the Quantimet600 image analyzer (Leica).

anaesthetised dogs = conditions: 200 mg stevioside powder/kg peroral; cited from earlier work
[6] = tested on: mouse pancreatic islets, β-cell line INS-1; conditions: direct action on β-cells; cited from earlier work
[7] = stevioside 10 mg/kg or steviol 5 mg/kg orally, 12 weeks, compared with placebo mice
[8] = stevioside 10 mg/kg orally, 12 weeks, compared to baseline levels
[9] = aortic arch, stevioside 10 mg/kg orally, 12 weeks

C=C1C[C@@]23CC[C@H]4C(C)(CCC[C@@]4(C)C(=O)O[C@@H]4O[C@H](CO)C(O)[C@H](O)C4O)[C@@H]2CCC1(OC1O[C@H](CO)C(O)C(O)C1OC1O[C@H](CO)C(O)[C@H](O)C1O)C3 (stereo in doubt) [stevioside, Kaur-16-en-18-oic acid, 13-[(2-O-b-D-glucopyranosyl-b-D-glucopyranosyl)oxy]-, b-D-glucopyranosyl ester, (4a)-]
plasma concentration of adiponectin ([1]; after 12 weeks of treatment, before treatment 4729±1652, P=0.003): 6517 ± 1472 ng/mL | FFA level [1, 7]: significantly lower | HOMA values (insulin resistance) [1, 7]: significantly lower | cholesterol level [1, 7]: significantly lower | glucose level [1, 7]: significantly lower | insulin level [1, 7]: significantly lower | triglyceride level [1, 7]: significantly lower | FFA [1, 8]: reduced | cholesterol [1, 8]: reduced | glucose [1, 8]: reduced | insulin [1, 8]: reduced | triglycerides [1, 8]: reduced | insulin sensitivity ([1]; stevioside 10 mg/kg orally, 12 weeks, result of the decrease in glucose and insulin): increase | lowering of systolic and diastolic blood pressure ([2]; 750 mg or 1500 mg of stevioside a day for one or two years): about 7% | fasting glucose concentrations ([2]; long-term administration, volunteers with normal glucose levels): did not reveal effects | increase of weight during the treatment period [3]: 41% | eNOS ([4]; aorta of stevioside-treated mice): not affected | expression of IRS2 [4, 9]: increased expression | expression of PPARalpha [4, 9]: did not increase | expression of SOD1 [4, 9]: increased expression | expression of SOD2 [4, 9]: increased expression | expression of the inflammatory iNOS [4, 9]: decreased the expression | lipid deposition in plaques [5]: reducing | macrophage deposition in plaques [5]: reducing | oxLDL deposition in plaques [5]: reducing | plaque volume [5]: lowered | smooth muscle cell (SMC)-to-macrophage ratio (proxy for plaque stability) [5]: increased | blood pressure (anaesthetised dogs): short-term blood pressure reduction | insulin secretion [6]: stimulation of insulin secretion

Source: patent US20100099640A1, “TISSUE DEGENERATION PROTECTION” (priority 2007, published 2010)
